{"source": "patent US11040958B2", "about": "“Triazole antimicrobial derivative, pharmaceutical composition and use thereof” (priority 2017, dated 2021)", "key": {"[1]": {"assay": "In vitro metabolic stability in rat intestinal S9", "assay_type": "in vitro ADME", "conditions": "37°C, S9 1 mg/mL, compound 10 μM, NADPH regeneration system", "experimental": "(§1) The two reaction systems were set up three samples in parallel, while each sample was taken in an amount of 100 μL at 1 min, 2 mins, 5 mins, 15 mins, and 30 mins after the reaction, added to the centrifuge tube containing 400 μL of 0° C. pre-cooled internal standard working fluid and terminated the reaction. The sample was mixed by vortex for 1 min, centrifuged at 10,000×g for 10 mins in a 4° C. pre-cooled high-speed centrifuge. The supernatant was taken for HPLC detection. […] Concentration of mother liquor of compounds: 1 mM […] [table]"}, "[2]": {"assay": "Solid stability test (25°C, RH 60%, 30 days)", "assay_type": "physicochemical", "conditions": "25°C±2°C, relative humidity 60%±2%", "experimental": "Experimental conditions: 25° C.±2° C., relative humidity 60%±2%\nExperimental instrument: Agilent 1260 HPLC; chamber for stability test\nExperimental method: each compound of the present disclosure was packaged (the inner packaging material was a penicillin bottle; the outer packaging material was a double-layer aluminum foil bag, and a desiccant was added inside and outside the package), placed in the chamber for stability test, at a temperature of 25° C.±2° C. and a relative humidity of 60%±2%. The degradation situation of the compounds for 30 days was examined. The contents of total impurities before and after 30 days of each compound were compared and the results were as follows: […]"}, "[3]": {"assay": "In vitro metabolic stability in human plasma", "assay_type": "in vitro ADME", "conditions": "37°C, compound 10 μM", "experimental": "The two reaction systems were set up three samples in parallel, while each sample was taken in an amount of 100 μL at 1 min, 2 mins, 5 mins, 15 mins, and 30 mins after the reaction, added to the centrifuge tube containing 400 μL of 0° C. pre-cooled internal standard working fluid and terminated the reaction. The sample was mixed by vortex for 1 min, centrifuged at 10,000×g for 10 mins in a 4° C. pre-cooled high-speed centrifuge. The supernatant was taken for HPLC detection."}, "[4]": {"system": "Candida albicans ATCC10231", "assay": "Systemic fungal infection in mice, administration by gavage, survival", "assay_type": "in vivo", "conditions": "ICR mice, 5 mg/kg (calculated as voriconazole) once daily for 5 days", "experimental": "ICR mice, weighing 18-22 g, male, provided by the Hubei Experimental Animal Center.\nThe standard strain Candida albicans was purchased from the American Type Culture Collection, and the strain number was ATCC10231.\nBefore the experiment, a small amount of Candida albicans was picked from the SDA medium preserved at 4° C. by inoculation circle, inoculated into 1 ml of YPD culture medium, and cultured at 30° C. while being shaken at 200 rpm for 16 hours to make the fungus in the late stage of exponential growth. Blood cell counting plate was used to count, and the concentration of the broth was adjusted to 1*10^3−5*10^3 CFU/ml with RPMI1640 medium. The Candida albicans monoclone on the SDA plate was picked, inoculated into 1 ml YPD medium, cultured at 35° C., 200 rpm for 16 hours to the late exponential growth phase, 1% of which was then inoculated in fresh medium for 6 hours, centrifuged at 1000×g for 5 mins, washed three times with saline until the supernatant was colorless, while hemocytometer was used to count. The cell concentration was adjusted to 5*10^6/ml. The tail vein injection of 0.1 ml/10 g was carried out to cause a systemic fungal infection in mice. The mice were randomized into groups of 10 each. Voriconazole used was in the form of a suspension prepared with CMC-Na (Shanghai Panhong Chemical Technology Co., Ltd.), while other tested drugs were dissolved in saline and sonicated until clarified for administration. After establishing a systemic fungal infection model in mice for 2 hours, each group was administered by gavage with 5 mg/kg (calculated as voriconazole) drug, with the volume for administration of 0.1 ml/10 g. The mice in the model group were administered 0.1 ml/10 g of 0.9% sodium chloride solution, once daily, for 5 consecutive days. The death situation of the mice was inspected and the survival time was recorded. After a total of 7 days of observation, all dead mice were treated with fire using ethanol."}, "[5]": {"assay": "In vitro metabolic stability in rat plasma", "assay_type": "in vitro ADME", "conditions": "37°C, compound 10 μM", "experimental": "The two reaction systems were set up three samples in parallel, while each sample was taken in an amount of 100 μL at 1 min, 2 mins, 5 mins, 15 mins, and 30 mins after the reaction, added to the centrifuge tube containing 400 μL of 0° C. pre-cooled internal standard working fluid and terminated the reaction. The sample was mixed by vortex for 1 min, centrifuged at 10,000×g for 10 mins in a 4° C. pre-cooled high-speed centrifuge. The supernatant was taken for HPLC detection. […] Concentration of mother liquor of compounds: 1 mM […]"}, "[6]": {"assay": "In vitro metabolic stability in human intestinal S9", "assay_type": "in vitro ADME", "conditions": "37°C, S9 1 mg/mL, compound 10 μM, NADPH regeneration system", "experimental": "as §1"}, "[7]": {"assay": "Solubility test in deionized water (HPLC, external calibration)", "assay_type": "physicochemical", "conditions": "deionized water, 25±2°C", "experimental": "Experimental condition: 25±2° C.\nDissolving medium: deionized water\nExperimental method: 1 mg voriconazole and appropriate amount of each compound were weighed, placed in 1 ml deionized water separately, shaken vigorously for 30 s every 5 mins for 30 mins."}, "[8]": {"assay": "Pharmacokinetics after single gastrointestinal (gavage) administration in rats (plasma voriconazole)", "assay_type": "in vivo", "conditions": "SD rats, 2.5 mg/kg (calculated as voriconazole)", "experimental": "Dosing volume for administration: 10 ml/kg\nSolvent medium for administration: except for the positive voriconazole group using CMC-Na, the other groups using normal saline\nRoute of administration: gavage"}, "[9]": {"assay": "Pharmacokinetics after single intravenous administration in rats (plasma voriconazole)", "conditions": "rat, in vivo, 2.5 mg/kg", "how_it_was_run": "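SD rats (180–220 g, 3 male/3 female per group) given single tail-vein dose of 2.5 mg/kg (as voriconazole). Plasma voriconazole measured in blood sampled at multiple time points post-dose.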"}}, "data": [{"smiles": "CC(OC(=O)N(C)c1ncccc1COC(=O)[C@@H](N)CCCN)[n+]1cnn(C[C@](O)(c2ccc(F)cc2F)[C@@H](C)c2ncncc2F)c1.Cl.Cl.Cl.[Br-]", "note": "(stereo partly shown) [QR16008]", "values": [{"measurement": "Rat intestinal S9 T1/2", "setting": "[1]", "result": "32.52 ± 7.82", "unit": "min"}, {"measurement": "Content increase of total impurity (25° C., placed for 30 days)", "setting": "[2]", "result": 1.05, "unit": "%"}, {"measurement": "Human plasma T1/2", "setting": "[3]", "result": "9.49 ± 1.31", "unit": "min"}, {"measurement": "survival rate of mice, day 1", "setting": "[4]", "result": 100, "unit": "%"}, {"measurement": "survival rate of mice, day 2", "setting": "[4]", "result": 100, "unit": "%"}, {"measurement": "survival rate of mice, day 3", "setting": "[4]", "result": 100, "unit": "%"}, {"measurement": "survival rate of mice, day 4", "setting": "[4]", "result": 100, "unit": "%"}, {"measurement": "survival rate of mice, day 5", "setting": "[4]", "result": 90, "unit": "%"}, {"measurement": "survival rate of mice, day 6", "setting": "[4]", "result": 80, "unit": "%"}, {"measurement": "survival rate of mice, day 7", "setting": "[4]", "result": 80, "unit": "%"}, {"measurement": "Rat plasma T1/2", "setting": "[5]", "result": "10.58 ± 2.95", "unit": "min"}, {"measurement": "Human intestinal S9 T1/2", "setting": "[6]", "result": "30.25 ± 4.90", "unit": "min"}, {"measurement": "Solubility", "setting": "[7]", "result": ">50", "unit": "mg/mL"}, {"measurement": "AUClast", "setting": "[8]", "result": "8745 ± 2365", "unit": "ng·h/mL"}, {"measurement": "Cmax", "setting": "[8]", "result": "825 ± 256", "unit": "ng/mL"}, {"measurement": "T1/2", "setting": "[8]", "result": "159 ± 34.8", "unit": "min"}]}, {"smiles": "CC(OC(=O)N(C)c1ncccc1COC(=O)CN(C)C)[n+]1cnn(C[C@](O)(c2ccc(F)cc2F)[C@@H](C)c2ncncc2F)c1.Cl.Cl.[Cl-]", "note": "(stereo partly shown) [QR16045]", "values": [{"measurement": "Rat intestinal S9 T1/2", "setting": "[1]", "result": "27.85 ± 6.58", "unit": "min"}, {"measurement": "Content increase of total impurity (25° C., placed for 30 days)", "setting": "[2]", "result": 2.23, "unit": "%"}, {"measurement": "Human plasma T1/2", "setting": "[3]", "result": "8.95 ± 0.12", "unit": "min"}, {"measurement": "AUClast", "setting": "[9]", "result": "8586 ± 1856", "unit": "ng·h/mL"}, {"measurement": "T1/2", "setting": "[9]", "result": "164 ± 46.8", "unit": "min"}, {"measurement": "survival rate of mice, day 1", "setting": "[4]", "result": 100, "unit": "%"}, {"measurement": "survival rate of mice, day 2", "setting": "[4]", "result": 100, "unit": "%"}, {"measurement": "survival rate of mice, day 3", "setting": "[4]", "result": 90, "unit": "%"}, {"measurement": "survival rate of mice, day 4", "setting": "[4]", "result": 90, "unit": "%"}, {"measurement": "survival rate of mice, day 5", "setting": "[4]", "result": 90, "unit": "%"}, {"measurement": "survival rate of mice, day 6", "setting": "[4]", "result": 90, "unit": "%"}, {"measurement": "survival rate of mice, day 7", "setting": "[4]", "result": 80, "unit": "%"}, {"measurement": "Rat plasma T1/2", "setting": "[5]", "result": "8.88 ± 0.55", "unit": "min"}, {"measurement": "Human intestinal S9 T1/2", "setting": "[6]", "result": "32.97 ± 8.45", "unit": "min"}, {"measurement": "Solubility", "setting": "[7]", "result": ">50", "unit": "mg/mL"}, {"measurement": "AUClast", "setting": "[8]", "result": "7859 ± 2256", "unit": "ng·h/mL"}, {"measurement": "Cmax", "setting": "[8]", "result": "562 ± 158", "unit": "ng/mL"}, {"measurement": "T1/2", "setting": "[8]", "result": "155 ± 52.8", "unit": "min"}]}]}
